Source: ChEMBL document CHEMBL4316596, “Antimicrobial Peptides with High Proteolytic Resistance for Combating Gram-Negative Bacteria” (J Med Chem, 2019)
Values after ≈ are worked out from the molar mass of the structure shown.

Assays:
Klebsiella pneumoniae [1] = experiment: Antimicrobial activity against Klebsiella pneumoniae after 24 hrs by NCCLS-protocol based assay; format: functional
Escherichia coli [2] = experiment: Antimicrobial activity against Escherichia coli UB1005 after 24 hrs by NCCLS-protocol based assay; format: functional; details: UB1005, 24 h
Pseudomonas aeruginosa [3] = experiment: Antimicrobial activity against Pseudomonas aeruginosa CICC 21625 clinical isolates after 24 hrs by NCCLS-protocol based assay; format: functional; details: CICC 21625, 24 h
Salmonella typhimurium [4] = experiment: Antimicrobial activity against Salmonella typhimurium C7731 after 24 hrs by NCCLS-protocol based assay; format: functional, Salmonella enterica subsp. enterica serovar Typhimurium; details: Salmonella enterica, C7731, 24 h
Escherichia coli [5] = experiment: Antimicrobial activity against Escherichia coli K99 after 24 hrs by NCCLS-protocol based assay; format: functional; details: K99, 24 h
Pseudomonas aeruginosa [6] = experiment: Antimicrobial activity against Pseudomonas aeruginosa ATCC 27853 after 24 hrs by NCCLS-protocol based assay; format: functional; details: ATCC 27853, 24 h
[7] = Bactericidal activity against Salmonella pullorum C7913 incubated for 4 hrs followed by culture spread on agar plates and cultured overnight; format: functional, Salmonella enterica subsp. enterica serovar Pullorum; details: Salmonella enterica, C7913, 4 h; read-out: MBC>99.9
Escherichia coli [8] = experiment: Bactericidal activity against Escherichia coli 078 incubated for 4 hrs followed by culture spread on agar plates and cultured overnight; format: functional; details: Escherichia coli, 078, 4 h; read-out: MBC>99.9
Acinetobacter baumannii [9] = experiment: Antimicrobial activity against Acinetobacter baumannii after 24 hrs by NCCLS-protocol based assay; format: functional
Escherichia coli [10] = experiment: Bactericidal activity against Escherichia coli K88 incubated for 4 hrs followed by culture spread on agar plates and cultured overnight; format: functional; details: K88, 4 h, read-out: MBC>99.9
[11] = Antimicrobial activity against Salmonella pullorum C7913 after 24 hrs by NCCLS-protocol based assay; format: functional, Salmonella enterica subsp. enterica serovar Pullorum; details: Salmonella enterica, C7913, 24 h
Escherichia coli [12] = experiment: Antimicrobial activity against Escherichia coli 078 after 24 hrs by NCCLS-protocol based assay; format: functional; details: Escherichia coli, 078, 24 h
Pseudomonas aeruginosa [13] = experiment: Bactericidal activity against Pseudomonas aeruginosa ATCC 27853 incubated for 4 hrs followed by culture spread on agar plates and cultured overnight; format: functional; details: ATCC 27853, 4 h, read-out: MBC>99.9
Escherichia coli [14] = experiment: Antimicrobial activity against Escherichia coli K88 after 24 hrs by NCCLS-protocol based assay; format: functional; details: K88, 24 h
Salmonella typhimurium [15] = experiment: Bactericidal activity against Salmonella typhimurium ATCC 14028 incubated for 4 hrs followed by culture spread on agar plates and cultured overnight; format: functional, Salmonella enterica subsp. enterica serovar Typhimurium; details: Salmonella enterica, ATCC 14028, 4 h; read-out: MBC>99.9
Escherichia coli [16] = experiment: Bactericidal activity against Escherichia coli ATCC 25922 incubated for 4 hrs followed by culture spread on agar plates and cultured overnight; format: functional; details: ATCC 25922, 4 h, read-out: MBC>99.9
Pseudomonas aeruginosa [17] = experiment: Antimicrobial activity against Pseudomonas aeruginosa PAO1 after 24 hrs by NCCLS-protocol based assay; format: functional; details: PAO1, 24 h
Escherichia coli [18] = experiment: Antimicrobial activity against Escherichia coli ATCC 25922 after 24 hrs by NCCLS-protocol based assay; format: functional; details: ATCC 25922, 24 h
Escherichia coli [19] = experiment: Bactericidal activity against Escherichia coli K99 incubated for 4 hrs followed by culture spread on agar plates and cultured overnight; format: functional; details: K99, 4 h, read-out: MBC>99.9
Pseudomonas aeruginosa [20] = experiment: Bactericidal activity against Pseudomonas aeruginosa CICC 21630 clinical isolates incubated for 4 hrs followed by culture spread on agar plates and cultured overnight; format: functional; details: CICC 21630, 4 h, read-out: MBC>99.9
Pseudomonas aeruginosa [21] = experiment: Antimicrobial activity against Pseudomonas aeruginosa 26305 clinical isolates after 24 hrs by NCCLS-protocol based assay; format: functional; details: Pseudomonas aeruginosa, 26305, 24 h
Klebsiella pneumoniae [22] = experiment: Bactericidal activity against Klebsiella pneumoniae incubated for 4 hrs followed by culture spread on agar plates and cultured overnight; format: functional; details: read-out: MBC>99.9
Pseudomonas aeruginosa [23] = experiment: Bactericidal activity against Pseudomonas aeruginosa 26305 clinical isolates incubated for 4 hrs followed by culture spread on agar plates and cultured overnight; format: functional; details: Pseudomonas aeruginosa, 26305, 4 h; read-out: MBC>99.9
Escherichia coli [24] = experiment: Bactericidal activity against Escherichia coli UB1005 incubated for 4 hrs followed by culture spread on agar plates and cultured overnight; format: functional; details: UB1005, 4 h, read-out: MBC>99.9
Acinetobacter baumannii [25] = experiment: Bactericidal activity against Acinetobacter baumannii incubated for 4 hrs followed by culture spread on agar plates and cultured overnight; format: functional; details: read-out: MBC>99.9
Pseudomonas aeruginosa [26] = experiment: Bactericidal activity against Pseudomonas aeruginosa 25349 clinical isolates incubated for 4 hrs followed by culture spread on agar plates and cultured overnight; format: functional; details: Pseudomonas aeruginosa, 25349, 4 h; read-out: MBC>99.9
Pseudomonas aeruginosa [27] = experiment: Bactericidal activity against Pseudomonas aeruginosa PAO1 incubated for 4 hrs followed by culture spread on agar plates and cultured overnight; format: functional; details: PAO1, 4 h, read-out: MBC>99.9
Pseudomonas aeruginosa [28] = experiment: Bactericidal activity against Pseudomonas aeruginosa CICC 21625 clinical isolates incubated for 4 hrs followed by culture spread on agar plates and cultured overnight; format: functional; details: CICC 21625, 4 h, read-out: MBC>99.9
Pseudomonas aeruginosa [29] = experiment: Antimicrobial activity against Pseudomonas aeruginosa CICC 21630 clinical isolates after 24 hrs by NCCLS-protocol based assay; format: functional; details: CICC 21630, 24 h
Salmonella typhimurium [30] = experiment: Antimicrobial activity against Salmonella typhimurium ATCC 14028 after 24 hrs by NCCLS-protocol based assay; format: functional, Salmonella enterica subsp. enterica serovar Typhimurium; details: Salmonella enterica, ATCC 14028, 24 h
Salmonella typhimurium [31] = experiment: Bactericidal activity against Salmonella typhimurium C7731 incubated for 4 hrs followed by culture spread on agar plates and cultured overnight; format: functional, Salmonella enterica subsp. enterica serovar Typhimurium; details: Salmonella enterica, C7731, 4 h; read-out: MBC>99.9
Pseudomonas aeruginosa [32] = experiment: Antimicrobial activity against Pseudomonas aeruginosa 25349 clinical isolates after 24 hrs by NCCLS-protocol based assay; format: functional; details: Pseudomonas aeruginosa, 25349, 24 h

| Compound | MIC95 (Klebsiella pneumoniae [1]) [µM] | MIC95 (Escherichia coli [2]) [µM] | MIC95 (Pseudomonas aeruginosa [3]) [µM] | MIC95 (Salmonella typhimurium [4]) [µM] | MIC95 (Escherichia coli [5]) [µM] | MIC95 (Pseudomonas aeruginosa [6]) [µM] | MBC [7] [µM] | MBC (Escherichia coli [8]) [µM] | MIC95 (Acinetobacter baumannii [9]) [µM] | MBC (Escherichia coli [10]) [µM] | MIC95 [11] [µM] | MIC95 (Escherichia coli [12]) [µM] | MBC (Pseudomonas aeruginosa [13]) [µM] | MIC95 (Escherichia coli [14]) [µM] | MBC (Salmonella typhimurium [15]) [µM] | MBC (Escherichia coli [16]) [µM] | MIC95 (Pseudomonas aeruginosa [17]) [µM] | MIC95 (Escherichia coli [18]) [µM] | MBC (Escherichia coli [19]) [µM] | MBC (Pseudomonas aeruginosa [20]) [µM] | other results |
| --- | --- | --- | --- | --- | --- | --- | --- | --- | --- | --- | --- | --- | --- | --- | --- | --- | --- | --- | --- | --- | --- |
| H-LKPLLKPLLKPLLKPLLKPLLKPLLKPLLKPL-NH2 | 1 | 2 | 4 | 4 | 1 | 2 | 4 | 2 | 1 | 1 | 2 | 2 | 2 | 1 | 4 | 1 | 1 | 1 | 2 | 8 | MIC95 (Pseudomonas aeruginosa [21]): 4 µM; MBC (Klebsiella pneumoniae [22]): 2 µM; MBC (Pseudomonas aeruginosa [23]): 8 µM; MBC (Escherichia coli [24]): 4 µM; MBC (Acinetobacter baumannii [25]): 1 µM; MBC (Pseudomonas aeruginosa [26]): 16 µM; MBC (Pseudomonas aeruginosa [27]): 2 µM; MBC (Pseudomonas aeruginosa [28]): 16 µM; MIC95 (Pseudomonas aeruginosa [29]): 4 µM; MIC95 (Salmonella typhimurium [30]): 2 µM; MBC (Salmonella typhimurium [31]): 4 µM; MIC95 (Pseudomonas aeruginosa [32]): 4 µM |
| CN[C@H](CC(C)C)C(=O)N[C@H]1C(=O)N[C@@H](CC(N)=O)C(=O)N[C@H]2C(=O)N[C@H]3C(=O)N[C@H](C(=O)N[C@H](C(=O)O)c4cc(O)cc(O)c4-c4cc3ccc4O)[C@H](O)c3ccc(c(Cl)c3)Oc3cc2cc(c3O[C@@H]2O[C@H](CO)[C@@H](O)[C@H](O)[C@H]2O[C@H]2C[C@](C)(N)[C@H](O)[C@H](C)O2)Oc2ccc(cc2Cl)[C@H]1O [VANCOMYCIN] | 16 (≈ 23.2 µg/mL) | 16 (≈ 23.2 µg/mL) | 64 (≈ 92.8 µg/mL) | 8 (≈ 11.6 µg/mL) | 4 (≈ 5.8 µg/mL) | > 64 | 8 (≈ 11.6 µg/mL) | 4 (≈ 5.8 µg/mL) | 2 (≈ 2.9 µg/mL) | 4 (≈ 5.8 µg/mL) | 8 (≈ 11.6 µg/mL) | 4 (≈ 5.8 µg/mL) | > 64 | 2 (≈ 2.9 µg/mL) | 8 (≈ 11.6 µg/mL) | 16 (≈ 23.2 µg/mL) | 8 (≈ 11.6 µg/mL) | 8 (≈ 11.6 µg/mL) | 4 (≈ 5.8 µg/mL) | 64 (≈ 92.8 µg/mL) | MIC95 (Pseudomonas aeruginosa [21]): 64 µM (≈ 92.8 µg/mL); MBC (Klebsiella pneumoniae [22]): 32 µM (≈ 46.4 µg/mL); MBC (Pseudomonas aeruginosa [23]): > 64 µM; MBC (Escherichia coli [24]): 16 µM (≈ 23.2 µg/mL); MBC (Acinetobacter baumannii [25]): 2 µM (≈ 2.9 µg/mL); MBC (Pseudomonas aeruginosa [26]): > 64 µM; MBC (Pseudomonas aeruginosa [27]): 16 µM (≈ 23.2 µg/mL); MBC (Pseudomonas aeruginosa [28]): > 64 µM; MIC95 (Pseudomonas aeruginosa [29]): 32 µM (≈ 46.4 µg/mL); MIC95 (Salmonella typhimurium [30]): 8 µM (≈ 11.6 µg/mL); MBC (Salmonella typhimurium [31]): 16 µM (≈ 23.2 µg/mL); MIC95 (Pseudomonas aeruginosa [32]): 64 µM (≈ 92.8 µg/mL) |
